Test results taken from PubChem BioAssay (NCI).
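The compound was tested at five concentrations on cells cultured in 96-well plates, with a 48-hour exposure period. At the GI50, growth is halved. TGI: concentration producing complete growth inhibition.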

What was measured:
Experiment in all cases: DTP human tumour cell line panel, 48 h
BT-549 breast = tested on: BT-549 breast
CAKI-1 renal = tested on: CAKI-1 renal
CCRF-CEM leukemia = tested on: CCRF-CEM leukemia
COLO 205 colon = tested on: COLO 205 colon
DU-145 prostate = tested on: DU-145 prostate
HS 578T breast = tested on: HS 578T breast
OVCAR-8 ovarian = tested on: OVCAR-8 ovarian
SF-268 CNS = tested on: SF-268 CNS
SNB-19 CNS = tested on: SNB-19 CNS
SR leukemia = tested on: SR leukemia

| SMILES | GI50 (BT-549 breast) [µM] | TGI (BT-549 breast) [µM] | GI50 (CAKI-1 renal) [µM] | TGI (CAKI-1 renal) [µM] | GI50 (CCRF-CEM leukemia) [µM] | TGI (CCRF-CEM leukemia) [µM] | GI50 (COLO 205 colon) [µM] | TGI (COLO 205 colon) [µM] | GI50 (DU-145 prostate) [µM] | TGI (DU-145 prostate) [µM] | GI50 (HS 578T breast) [µM] | TGI (HS 578T breast) [µM] | GI50 (OVCAR-8 ovarian) [µM] | TGI (OVCAR-8 ovarian) [µM] | GI50 (SF-268 CNS) [µM] | TGI (SF-268 CNS) [µM] | GI50 (SNB-19 CNS) [µM] | TGI (SNB-19 CNS) [µM] | GI50 (SR leukemia) [µM] | TGI (SR leukemia) [µM] |
| --- | --- | --- | --- | --- | --- | --- | --- | --- | --- | --- | --- | --- | --- | --- | --- | --- | --- | --- | --- | --- |
| Cc1ccc(S(=O)(=O)Cc2nc(-c3ccc(C(=O)NCc4cccnc4)cc3)oc2C)cc1 | 3.37 | > 100 | 1.87 | > 100 | 0.0103 | > 100 | 0.492 | > 100 | 0.0907 | > 100 | 7.9 | > 100 | < 0.01 | > 100 | 19 | > 100 | 0.0869 | > 100 | 0.514 | > 100 |
| CN(CCCl)c1ccc(/C=C/C2=[N+](C)c3ccccc3C2(C)C)cc1 | 0.424 | 4.85 | 17.5 | 43.6 | 0.151 | 5.75 | 0.339 | 1.56 | 0.598 | 15.3 | 1.53 | 32.1 | 0.353 | 12 | 0.691 | 13.5 | 0.495 | 15.5 | 0.332 | 12.5 |
| CNC1C(O)C(OC2C(N)CC(N)C(OC3OC(C(C)O)C(O)C(O)C3N)C2O)OCC1(C)O (stereo not given) | – | > 100 | – | > 100 | – | > 100 | – | > 100 | – | > 100 | – | > 100 | – | > 100 | – | > 100 | – | > 100 | – | > 100 |
| COc1ccc(C(=O)/C=C/c2ccc(OCC(=O)N3CCN(c4ccccc4)CC3)cc2)cc1 | – | > 77.3 | – | > 100 | – | > 100 | – | > 75.2 | – | > 100 | – | > 76.5 | – | > 100 | – | > 100 | – | 65.1 | – | > 60.4 |
| C#Cc1cccc(Nc2nc3ccc([N+](=O)[O-])cc3nc2Nc2cccc(C#C)c2)c1 | 0.294 | 1.2 | 0.297 | 0.994 | 0.209 | 1.03 | 0.172 | 0.345 | 0.367 | 1.47 | 0.322 | 1.72 | 0.303 | 1.46 | 0.313 | 1.3 | 0.361 | 1.84 | 0.318 | 1.3 |
| Cc1cc(C)nc(SC2=C(Nc3cccc(Cl)c3C)C(=O)N(Cc3ccccc3)C2=O)n1 | > 160 | > 160 | > 160 | > 160 | > 160 | > 160 | > 160 | > 160 | > 160 | > 160 | > 160 | > 160 | > 160 | > 160 | > 160 | > 160 | > 160 | > 160 | > 160 | > 160 |
| CS(=O)(=O)CCNCc1ccc(-c2ccc3ncnc(Nc4ccc(OCc5ccccc5)c(Cl)c4)c3c2)o1 | 6.9 | > 25 | 0.41 | > 21.8 | 7.24 | > 21.5 | 4.05 | 9.67 | 7.91 | > 25 | 3.55 | 12.7 | 8.1 | > 25 | 6.52 | > 25 | 10.4 | > 25 | 6.91 | 23.9 |
| COc1ccc(-c2csc(-c3cc(Cl)cc(Cl)c3Cl)n2)cc1 | 92.2 | > 100 | > 100 | > 100 | > 100 | > 100 | > 100 | > 100 | 63.9 | > 100 | 46.8 | > 100 | 48.4 | > 100 | 58 | > 100 | 50.3 | > 100 | 7.05 | 32.4 |
